Here are results for 8 compounds from patent US20230416329A1, “A PEPTIDE WITH DISULFIDE BONDS AND INHIBITORY ACTIVITY AGAINST SERINE PROTEASES, DERIVED HYBRID PEPTIDES THEREOF, AND USES THEREOF” (INSTITUTE OF MATERIA MEDICA , CHINESE ACADEMY OF MEDICAL …, priority 2020, published 2023).

The target in the assay is T1, bovine trypsin (Bos taurus, UniProt P00760).
T1 sequence (P00760 24-246): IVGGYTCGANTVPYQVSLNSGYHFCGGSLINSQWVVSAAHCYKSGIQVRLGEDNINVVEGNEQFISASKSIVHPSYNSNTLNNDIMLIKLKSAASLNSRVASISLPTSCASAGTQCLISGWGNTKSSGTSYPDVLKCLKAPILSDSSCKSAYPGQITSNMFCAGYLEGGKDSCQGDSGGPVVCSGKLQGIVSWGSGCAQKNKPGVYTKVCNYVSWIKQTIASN
Put plainly: Trypsin inhibitory activity of peptides (BApNA hydrolysis, OD405; IC50, Ki, residual activity). It is filed as biochemical. As to the method: The substrates N-succinyl-Ala-Ala-Pro-Phe-p-nitroaniline (AAPFpNA), Nα—Benzoyl-L-arginine-4-nitroaniline hydrochloride (BApNA) and N-succinyl-[…] (AAApNA) are used in competitive binding reaction to determine the inhibitory activities against α-chymotrypsin, bovine trypsin, and porcine pancreatic elastase, respectively. Experiments for α-chymotrypsin and bovine trypsin inhibition were measured in 20 mM CaCl2, 50 mM Tris-HCl buffer (pH 7.8), and that for porcine elastase inhibition was measured in 50 mM Tris-HCl buffer (pH 8.0). The concentration of the peptide was measured using optical density (OD) at 280 nm. The Michaelis constant (Km) of the enzyme hydrolysis substrate is calculated from the initial rate of substrate hydrolysis at 405 nm. The absorbance value of the substrate was measured at 405 nm after complete hydrolysis. All data were processed using nonlinear regression.
• (1) Added 200 μL of reaction buffer (20 mM CaCl2 and 50 mM Tris-HCl, pH 7.8) into the 96-well plate, and preheated at 37° C. for 15 min. Then added 5 μL of different concentrations of substrates (p-Nitroanilide, pNA, 0.5% in DMSO), and mixed by centrifugation at 500 rpm for 1 min. […] The experiment was performed in triplicate. The standard curve was obtained by plotting the OD405 nm value with pNA concentration. • (2) Added 190 μL of reaction buffer (20 mM CaCl2 and 50 mM Tris-HCl, pH 7.8) and 10 μL of 1 μM trypsin into the 96-well plate, and preheated at 37° C. for 15 min. Then added 5 μL of different concentrations of substrates (BApNA, 0.5% in DMSO) and mixed by centrifugation at 500 rpm for 1 min. […] The experiment was performed in triplicate. The corresponding curve was obtained by plotting the OD405 nm value with time. Divided the slope of the curve by the slope of the standard curve and the enzyme concentration to obtain the initial velocity V0 (mM/(min*mM protein). Plotted the initial velocity V0 with the concentration of substrate BApNA using Prism software, and the Michaelis constant Km value of trypsin hydrolyzing BApNA was obtained.
• (1) Added a total 190 μL of reaction buffer (20 mM CaCl2 and 50 mM Tris-HCl, pH 7.8) along with different concentrations of anti-trypsin peptides (BTs) into the pre-cooled 96-well plate, followed by preheating at 37° C., and spined down at 500 rpm for 5 min. Next added 10 μL of 1 μM trypsin, incubated at 37° C., and then spined down at 500 rpm for 10 min. Finally, added 5 μL of 50 mM BApNA, and mixed by centrifugation at 500 rpm for 1 min. The plate was incubated at 37° C. for 260 min, and the absorbance value at 405 nm was measured. The experiment was performed in triplicate. The blank control only contained the reaction buffer and the substrate as the minimum absorption value (Min OD405 nm). The negative control only contained the reaction buffer, the enzyme and the substrate as the maximum absorption value (Max OD405 nm). • (2) In the reaction system of 205 μL, the final concentrations of trypsin and BApNA were 50 nM and 1.22 mM, respectively. • (3) Data statistics
Residual activity of the enzyme (%)=(1−(Max OD405 nm−Sample OD405 nm)/(Max OD405 nm−Min OD405 nm))*100
Plotted the residual activity of the enzyme with […] to obtain the half inhibitory concentration (IC50) of BTs scaffold against trypsin. Then, substituted it into the formula Ki=IC50/(1+S/Km) (S, IC50 and Km were substrate concentration, half inhibitory concentration and Michaelis constant, respectively) to obtain the inhibition constant Ki of BTs scaffold against trypsin.

[1] abbreviates: Ki=IC50/(1+S/Km), Km 0.33 mM, read-out: Ki.
[2] abbreviates: trypsin 50 nM, BApNA 1.22 mM, read-out: IC50.

Each structure is given as a SMILES string. pIC50, pKi: −log10 of the molar value. Where two headings read alike, the source gives them in different places. Bridge positions count the residues as written; N and C are the ends. Square brackets hold non-standard residues; d marks the D form. Peptide text beside a SMILES is read from it. Nle = CCCC[C@H](N)C(=O)O; Abu = CC[C@H](N)C(=O)O

As to `CC[C@H](C)[C@@H]1NC(=O)[C@@H]2CCCN2C(=O)[C@@H]2CCCN2C(=O)[C@H]([C@@H](C)CC)NC(=O)[C@H](CO)NC(=O)[C@H](CCCCN)NC(=O)[C@H]([C@@H](C)O)NC(=O)[C@H](Cc2ccc(O)cc2)NC(=O)[C@H](CCCNC(=N)N)NC(=O)CNC(=O)[C@@H](N)CSSC[C@@H](C(=O)N[C@@H](Cc2ccccc2)C(=O)O)NC1=O` [BT53] (H-CGRYTKSIPPICF-OH; disulfide 1-12; C-terminus assumed), the pIC50 (commonly the IC50 on a negative log10 scale, so that one unit is a factor of ten) is 6.92; the pKi (as a rule, the negative decadic logarithm of the Ki, by convention in mol/L) is 7.52; the “inhibitory activity against trypsin (in words)” value (“inhibitory activity” below) is on record as “good inhibitory activities against trypsin”. Moreover, the “inhibitory activity” value (listed as SEQ ID NO: 53) is on record as “excellent trypsin inhibitory activities”. For the same compound, the Residual trypsin activity (peptide 0.000098 μM) was determined as 104.2 ± 0.5%. In addition, the Residual trypsin activity (peptide 0.00098 μM) came to 108.9 ± 2.0%. In addition, the Residual trypsin activity (peptide 0.0098 μM) is 106.0 ± 0.4%. Further, the Residual trypsin activity (peptide 0.0488 μM) is reported as 87.4 ± 4.9%. Under “peptide 0.0585 μM”, the Residual trypsin activity is listed as 84.9 ± 2.2%. Besides, the Residual trypsin activity (peptide 0.07317 μM) is recorded as 75.2 ± 2.8%. Moreover, under “peptide 0.098 μM”, the Residual trypsin activity is on record as 63.0 ± 1.9%. In addition, the Residual trypsin activity (peptide 0.98 μM) is listed as 0.5 ± 0.2%. Besides, the Residual trypsin activity (peptide 9.76 μM) was 0.2 ± 0.0%. Under “peptide 97.56 μM”, the Residual trypsin activity is recorded as 0.0 ± 0.1%.

Take `CC[C@@H]1NC(=O)[C@@H](N)CSSC[C@@H](C(=O)N[C@@H](Cc2ccccc2)C(=O)O)NC(=O)[C@H]([C@@H](C)CC)NC(=O)[C@@H]2CCCN2C(=O)[C@@H]2CCCN2C(=O)[C@H]([C@@H](C)CC)NC(=O)[C@H](CO)NC(=O)[C@H](CCCCN)NC(=O)[C@H]([C@@H](C)O)NC(=O)[C@H](C)NC(=O)[C@H](CCCNC(=N)N)NC1=O` [BT74] (H-C[Abu]RATKSIPPICF-OH; disulfide 1-12; N-terminus and C-terminus assumed): the “inhibitory activity” value is listed as “excellent trypsin inhibitory activities”. Further, the pKi under setting [1] is 7.70. Moreover, the pIC50 under setting [2] was 7.05.

On to `CCCC[C@@H]1NC(=O)[C@H](CO)NC(=O)[C@H](CCCCN)NC(=O)[C@H]([C@@H](C)O)NC(=O)[C@H](C)NC(=O)[C@H](CCCNC(=N)N)NC(=O)CNC(=O)[C@@H](N)CSSC[C@@H](C(=O)N[C@@H](Cc2ccccc2)C(=O)O)NC(=O)[C@H]([C@@H](C)CC)NC(=O)[C@@H]2CCCN2C(=O)[C@@H]2CCCN2C1=O` [BT28] (H-CGRATKS[Nle]PPICF-OH; disulfide 1-12; C-terminus assumed), for which the “inhibitory activity” value is “reduced their anti-trypsin activities”. Under setting [1], the pKi was 7.22. Moreover, the “inhibitory activity” value (listed as SEQ ID NO: 28) is reported as “excellent trypsin inhibitory activities”. Moreover, the Residual trypsin activity (peptide 0.00098 μM) was 102.3 ± 0.7%. Besides, the Residual trypsin activity (peptide 0.0098 μM) is 101.8 ± 0.1%. Besides, the Residual trypsin activity (peptide 0.098 μM) is 92.2 ± 5.5%. The Residual trypsin activity (peptide 0.195 μM) is recorded as 77.6 ± 8.3%. Moreover, the Residual trypsin activity (peptide 0.293 μM) is 52.7 ± 5.9%. In addition, the Residual trypsin activity (peptide 0.390 μM) is on record as 16.7 ± 3.7%. The Residual trypsin activity (peptide 0.98 μM) came out at 0.7 ± 0.0%. For the same compound, the Residual trypsin activity (peptide 9.76 μM) is 0.1 ± 0.0%. Further, the Residual trypsin activity (peptide 97.56 μM) is recorded as 0.0 ± 0.0%. In addition, the pIC50 under setting [2] is 6.54.

For `CC(C)C[C@@H]1NC(=O)[C@H](CO)NC(=O)[C@H](CCCCN)NC(=O)[C@H]([C@@H](C)O)NC(=O)[C@@H](NC(=O)[C@@H](N)CCCNC(=N)N)CSSC[C@@H](C(=O)N[C@@H](CO)C(=O)O)NC(=O)[C@H](CCC(N)=O)NC(=O)[C@@H]2CCCN2C(=O)[C@@H]2CCCN2C1=O` [BT65] (H-RCTKSLPPQCS-OH; disulfide 2-10; C-terminus assumed), the “inhibitory activity” value is recorded as “excellent trypsin inhibitory activities”. The pKi under setting [1] is 6.89.

Consider `CC(C)C[C@@H]1NC(=O)[C@H](CO)NC(=O)[C@H](CCCCN)NC(=O)[C@H]([C@@H](C)O)NC(=O)[C@H](C)NC(=O)[C@H](CCCNC(=N)N)NC(=O)CNC(=O)[C@@H](N)CSSC[C@@H](C(=O)N[C@@H](Cc2ccccc2)C(=O)O)NC(=O)[C@H](C)NC(=O)[C@@H]2CCCN2C(=O)[C@@H]2CCCN2C1=O` [BT14] (H-CGRATKSLPPACF-OH; disulfide 1-12; N-terminus and C-terminus assumed), for which the “inhibitory activity” value is “reduced their anti-trypsin activities”.

As to `CC[C@H](C)[C@@H]1NC(=O)[C@@H]2CCCN2C(=O)[C@@H]2CCCN2C(=O)[C@H]([C@@H](C)CC)NC(=O)[C@H](CO)NC(=O)[C@H](CCCCN)NC(=O)[C@H]([C@@H](C)O)NC(=O)[C@H](CCC(=O)O)NC(=O)[C@H](CCCNC(=N)N)NC(=O)CNC(=O)[C@@H](N)CSSC[C@@H](C(=O)N[C@@H](Cc2ccccc2)C(=O)O)NC1=O` [BT58] (H-CGRETKSIPPICF-OH; disulfide 1-12; N-terminus and C-terminus assumed), the pKi under setting [1] is 7.52. For the same compound, the pIC50 under setting [2] was 6.92.

As for `CC[C@H](C)[C@@H]1NC(=O)[C@@H]2CCCN2C(=O)[C@@H]2CCCN2C(=O)[C@H]([C@@H](C)CC)NC(=O)[C@H](CO)NC(=O)[C@H](CCCCN)NC(=O)[C@H]([C@@H](C)O)NC(=O)[C@H](C(C)C)NC(=O)[C@H](CCCNC(=N)N)NC(=O)CNC(=O)[C@@H](N)CSSC[C@@H](C(=O)N[C@@H](Cc2ccccc2)C(=O)O)NC1=O` [BT51] (H-CGRVTKSIPPICF-OH; disulfide 1-12), the “inhibitory activity” value is on record as “excellent trypsin inhibitory activities”. The negative-log Ki (pKi) under setting [1] is 7.05.

For the compound `CC[C@H](C)[C@@H]1NC(=O)[C@@H]2CCCN2C(=O)[C@@H]2CCCN2C(=O)[C@H]([C@@H](C)CC)NC(=O)[C@H](CO)NC(=O)[C@H](CCCNC(=N)N)NC(=O)[C@H]([C@@H](C)O)NC(=O)[C@H](C)NC(=O)[C@H](CCCNC(=N)N)NC(=O)CNC(=O)[C@@H](N)CSSC[C@@H](C(=O)N[C@@H](Cc2ccc(O)cc2)C(=O)O)NC1=O` [BT18] (H-CGRATRSIPPICY-OH; disulfide 1-12; N-terminus and C-terminus assumed), the “inhibitory activity” value was “significant impact on their anti-trypsisn activities”.
